Experimental data: ChEMBL document CHEMBL2331489, “Novel cinnoline-based inhibitors of LRRK2 kinase activity” (Bioorg Med Chem Lett, 2013)

How the values were obtained:
[1] = target: T1, Serine/threonine-protein kinase Chk1 (Homo sapiens) (UniProt O14757); experiment: Inhibition of CHK1 (unknown origin) at 10 uM relative to control
T1 sequence (whole entry): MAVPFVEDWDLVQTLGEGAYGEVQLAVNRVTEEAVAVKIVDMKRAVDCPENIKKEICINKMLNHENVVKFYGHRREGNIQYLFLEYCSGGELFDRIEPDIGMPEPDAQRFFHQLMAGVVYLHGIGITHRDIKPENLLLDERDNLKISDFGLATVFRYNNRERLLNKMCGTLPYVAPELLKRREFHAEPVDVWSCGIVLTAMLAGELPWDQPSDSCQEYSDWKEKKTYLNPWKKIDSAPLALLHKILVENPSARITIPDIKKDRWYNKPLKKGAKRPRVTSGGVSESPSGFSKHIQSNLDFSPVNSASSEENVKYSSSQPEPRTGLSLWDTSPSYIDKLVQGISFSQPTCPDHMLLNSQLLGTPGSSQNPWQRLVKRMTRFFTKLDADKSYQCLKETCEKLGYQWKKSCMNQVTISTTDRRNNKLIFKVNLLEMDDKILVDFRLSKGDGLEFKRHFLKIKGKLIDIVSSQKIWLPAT

[2] = target: Cyclin-dependent kinase 1/cyclin B1 (Homo sapiens) (UniProt P06493+P14635); experiment: Inhibition of CDK1/cyclin B (unknown origin) at 10 uM relative to control; format: protein-complex assay
[3] = target: Protein kinase C beta type (Homo sapiens) (UniProt P05771); experiment: Inhibition of PRKCbeta1 (unknown origin) at 10 uM relative to control
Protein kinase C beta type (Homo sapiens), sequence (P05771 2-671 limits assumed): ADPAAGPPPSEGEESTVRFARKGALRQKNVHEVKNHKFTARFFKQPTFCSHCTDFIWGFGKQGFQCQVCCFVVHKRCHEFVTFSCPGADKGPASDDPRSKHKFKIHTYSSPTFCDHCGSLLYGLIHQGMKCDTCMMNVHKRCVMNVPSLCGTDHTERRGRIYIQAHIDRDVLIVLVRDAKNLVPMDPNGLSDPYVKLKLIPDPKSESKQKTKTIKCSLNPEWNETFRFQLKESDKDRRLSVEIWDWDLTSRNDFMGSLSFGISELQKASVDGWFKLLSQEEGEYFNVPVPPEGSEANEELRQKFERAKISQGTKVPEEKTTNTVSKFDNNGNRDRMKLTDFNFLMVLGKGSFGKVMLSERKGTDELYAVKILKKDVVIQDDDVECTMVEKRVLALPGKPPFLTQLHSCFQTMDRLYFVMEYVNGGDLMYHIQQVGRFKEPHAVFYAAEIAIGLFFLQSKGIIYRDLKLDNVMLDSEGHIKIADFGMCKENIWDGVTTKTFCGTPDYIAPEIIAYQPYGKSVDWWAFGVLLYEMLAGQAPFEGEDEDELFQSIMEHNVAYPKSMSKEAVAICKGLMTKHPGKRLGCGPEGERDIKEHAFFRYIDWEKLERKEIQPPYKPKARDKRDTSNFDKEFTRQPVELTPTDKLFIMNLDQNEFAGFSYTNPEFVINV

[4] = target: Dual specificity tyrosine-phosphorylation-regulated kinase 1B (Homo sapiens) (UniProt Q9Y463); experiment: Inhibition of DYRK1B (unknown origin) at 10 uM relative to control
Dual specificity tyrosine-phosphorylation-regulated kinase 1B (Homo sapiens), sequence (Q9Y463 whole entry, looked up): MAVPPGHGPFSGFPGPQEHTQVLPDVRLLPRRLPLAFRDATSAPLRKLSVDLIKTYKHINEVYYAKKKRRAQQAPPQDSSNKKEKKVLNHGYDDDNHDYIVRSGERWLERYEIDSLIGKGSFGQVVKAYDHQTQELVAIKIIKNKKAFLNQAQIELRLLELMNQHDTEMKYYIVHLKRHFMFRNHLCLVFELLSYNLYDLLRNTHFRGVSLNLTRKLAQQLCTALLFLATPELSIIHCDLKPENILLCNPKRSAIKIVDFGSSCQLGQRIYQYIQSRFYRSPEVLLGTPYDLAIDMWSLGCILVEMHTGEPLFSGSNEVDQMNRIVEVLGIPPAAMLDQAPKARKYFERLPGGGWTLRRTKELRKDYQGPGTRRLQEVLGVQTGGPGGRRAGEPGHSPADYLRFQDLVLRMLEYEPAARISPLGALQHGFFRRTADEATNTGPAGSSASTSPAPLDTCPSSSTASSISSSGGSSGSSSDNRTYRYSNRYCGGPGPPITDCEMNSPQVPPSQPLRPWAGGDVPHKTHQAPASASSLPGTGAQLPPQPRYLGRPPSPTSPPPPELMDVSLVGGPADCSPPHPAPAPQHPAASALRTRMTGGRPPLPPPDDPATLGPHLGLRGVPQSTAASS

[5] = target: Mitogen-activated protein kinase 1 (Homo sapiens) (UniProt P28482); experiment: Inhibition of MAPK1 (unknown origin) at 10 uM relative to control
Mitogen-activated protein kinase 1 (Homo sapiens), sequence (P28482 whole entry): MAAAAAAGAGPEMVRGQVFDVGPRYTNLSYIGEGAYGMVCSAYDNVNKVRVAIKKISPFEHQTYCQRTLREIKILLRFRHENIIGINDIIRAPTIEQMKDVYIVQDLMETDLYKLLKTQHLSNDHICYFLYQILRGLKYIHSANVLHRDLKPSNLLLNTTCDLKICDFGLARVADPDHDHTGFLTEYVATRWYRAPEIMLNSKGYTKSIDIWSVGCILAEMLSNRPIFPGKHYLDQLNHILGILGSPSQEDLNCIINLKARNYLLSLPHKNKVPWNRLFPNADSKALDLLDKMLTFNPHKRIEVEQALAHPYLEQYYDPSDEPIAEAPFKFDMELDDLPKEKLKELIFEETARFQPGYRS

[6] = target: Tyrosine-protein kinase Lck (Homo sapiens) (UniProt P06239); experiment: Inhibition of LCK (unknown origin) at 10 uM relative to control
[7] = target: Platelet-derived growth factor receptor alpha (Homo sapiens, UniProt P16234); experiment: Inhibition of PDGFRalpha (unknown origin) at 10 uM relative to control
Platelet-derived growth factor receptor alpha, sequence (P16234 whole entry): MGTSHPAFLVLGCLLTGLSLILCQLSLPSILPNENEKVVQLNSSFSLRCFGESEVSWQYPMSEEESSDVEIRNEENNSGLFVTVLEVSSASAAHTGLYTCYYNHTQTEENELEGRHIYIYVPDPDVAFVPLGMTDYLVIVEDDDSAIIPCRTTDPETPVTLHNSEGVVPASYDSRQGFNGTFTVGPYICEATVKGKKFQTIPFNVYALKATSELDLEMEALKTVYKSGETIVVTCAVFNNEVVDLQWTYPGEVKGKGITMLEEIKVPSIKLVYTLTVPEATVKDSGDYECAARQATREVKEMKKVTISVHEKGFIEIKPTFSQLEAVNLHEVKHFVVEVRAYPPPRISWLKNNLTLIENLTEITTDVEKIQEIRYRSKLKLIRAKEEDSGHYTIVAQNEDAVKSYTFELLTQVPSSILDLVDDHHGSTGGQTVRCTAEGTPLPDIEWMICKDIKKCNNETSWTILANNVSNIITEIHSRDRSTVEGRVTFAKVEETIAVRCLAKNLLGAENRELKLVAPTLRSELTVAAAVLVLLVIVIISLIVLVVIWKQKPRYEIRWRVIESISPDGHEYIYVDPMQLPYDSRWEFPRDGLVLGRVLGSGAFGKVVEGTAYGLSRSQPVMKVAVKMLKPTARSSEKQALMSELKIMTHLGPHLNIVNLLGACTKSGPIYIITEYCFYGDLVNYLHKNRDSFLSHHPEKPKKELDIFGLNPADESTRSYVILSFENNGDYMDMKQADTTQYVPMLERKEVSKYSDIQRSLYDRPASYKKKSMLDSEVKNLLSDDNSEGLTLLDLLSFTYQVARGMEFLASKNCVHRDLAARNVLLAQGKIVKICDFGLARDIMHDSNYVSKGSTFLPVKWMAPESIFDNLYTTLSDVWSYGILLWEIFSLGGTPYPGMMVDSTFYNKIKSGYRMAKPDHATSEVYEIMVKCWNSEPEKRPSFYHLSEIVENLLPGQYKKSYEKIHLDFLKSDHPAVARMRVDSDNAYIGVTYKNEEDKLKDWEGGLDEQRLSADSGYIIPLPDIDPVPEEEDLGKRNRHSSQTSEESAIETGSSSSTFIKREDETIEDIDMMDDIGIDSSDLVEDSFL

[8] = target: Serine/threonine-protein kinase PLK2 (Homo sapiens) (UniProt Q9NYY3); experiment: Inhibition of PLK2 (unknown origin) at 10 uM relative to control
Serine/threonine-protein kinase PLK2 (Homo sapiens), sequence (Q9NYY3 whole entry, looked up): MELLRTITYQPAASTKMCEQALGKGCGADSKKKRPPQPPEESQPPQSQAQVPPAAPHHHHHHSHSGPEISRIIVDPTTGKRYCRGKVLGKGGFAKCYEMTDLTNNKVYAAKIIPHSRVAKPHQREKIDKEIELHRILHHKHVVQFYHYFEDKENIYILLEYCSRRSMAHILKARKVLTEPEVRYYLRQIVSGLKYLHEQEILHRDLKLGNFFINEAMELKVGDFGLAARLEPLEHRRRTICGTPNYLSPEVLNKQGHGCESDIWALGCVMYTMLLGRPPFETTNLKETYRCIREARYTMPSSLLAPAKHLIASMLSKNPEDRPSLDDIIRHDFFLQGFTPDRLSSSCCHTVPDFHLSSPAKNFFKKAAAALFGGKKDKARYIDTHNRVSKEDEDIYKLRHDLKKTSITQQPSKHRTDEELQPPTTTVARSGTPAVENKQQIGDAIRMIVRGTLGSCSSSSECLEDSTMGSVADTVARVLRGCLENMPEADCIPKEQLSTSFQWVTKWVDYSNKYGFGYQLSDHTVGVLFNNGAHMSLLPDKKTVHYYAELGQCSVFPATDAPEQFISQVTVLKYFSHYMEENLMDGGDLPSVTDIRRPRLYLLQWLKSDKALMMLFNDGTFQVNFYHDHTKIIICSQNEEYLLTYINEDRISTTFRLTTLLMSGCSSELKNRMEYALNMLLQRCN

[9] = target: Tyrosine-protein kinase ABL1 (Homo sapiens) (UniProt P00519); experiment: Inhibition of ABL1 (unknown origin) at 10 uM relative to control
[10] = target: T2, Dual specificity protein kinase TTK (Homo sapiens) (UniProt P33981); experiment: Inhibition of TTK (unknown origin) at 10 uM relative to control
T2 sequence (whole entry): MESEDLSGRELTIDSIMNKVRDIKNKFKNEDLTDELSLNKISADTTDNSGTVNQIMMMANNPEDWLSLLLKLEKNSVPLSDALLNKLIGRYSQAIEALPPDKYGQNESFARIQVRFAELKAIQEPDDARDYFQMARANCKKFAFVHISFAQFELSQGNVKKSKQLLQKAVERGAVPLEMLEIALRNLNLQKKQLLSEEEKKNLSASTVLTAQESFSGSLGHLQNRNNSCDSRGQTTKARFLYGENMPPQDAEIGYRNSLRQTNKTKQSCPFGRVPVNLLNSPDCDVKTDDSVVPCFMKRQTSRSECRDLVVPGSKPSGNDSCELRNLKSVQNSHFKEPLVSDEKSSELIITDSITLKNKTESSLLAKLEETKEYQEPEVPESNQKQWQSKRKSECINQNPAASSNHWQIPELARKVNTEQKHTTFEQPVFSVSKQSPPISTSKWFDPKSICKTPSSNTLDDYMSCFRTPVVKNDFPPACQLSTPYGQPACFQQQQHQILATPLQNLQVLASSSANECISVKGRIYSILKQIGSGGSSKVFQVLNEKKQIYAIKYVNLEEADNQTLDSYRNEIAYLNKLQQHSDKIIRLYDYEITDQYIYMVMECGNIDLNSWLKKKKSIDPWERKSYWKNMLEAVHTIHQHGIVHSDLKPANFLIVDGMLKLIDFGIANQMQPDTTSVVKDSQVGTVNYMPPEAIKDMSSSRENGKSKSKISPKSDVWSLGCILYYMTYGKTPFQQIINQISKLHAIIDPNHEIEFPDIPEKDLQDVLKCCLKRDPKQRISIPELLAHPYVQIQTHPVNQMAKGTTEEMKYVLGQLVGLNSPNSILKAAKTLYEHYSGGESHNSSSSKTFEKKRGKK

[11] = target: Serine/threonine-protein kinase MARK2 (Homo sapiens) (UniProt Q7KZI7); experiment: Inhibition of MARK2 (unknown origin) at 10 uM relative to control
[12] = target: RAC-alpha serine/threonine-protein kinase (Homo sapiens) (UniProt P31749); experiment: Inhibition of AKT1 (unknown origin) at 10 uM relative to control
RAC-alpha serine/threonine-protein kinase (Homo sapiens), sequence (P31749 whole entry): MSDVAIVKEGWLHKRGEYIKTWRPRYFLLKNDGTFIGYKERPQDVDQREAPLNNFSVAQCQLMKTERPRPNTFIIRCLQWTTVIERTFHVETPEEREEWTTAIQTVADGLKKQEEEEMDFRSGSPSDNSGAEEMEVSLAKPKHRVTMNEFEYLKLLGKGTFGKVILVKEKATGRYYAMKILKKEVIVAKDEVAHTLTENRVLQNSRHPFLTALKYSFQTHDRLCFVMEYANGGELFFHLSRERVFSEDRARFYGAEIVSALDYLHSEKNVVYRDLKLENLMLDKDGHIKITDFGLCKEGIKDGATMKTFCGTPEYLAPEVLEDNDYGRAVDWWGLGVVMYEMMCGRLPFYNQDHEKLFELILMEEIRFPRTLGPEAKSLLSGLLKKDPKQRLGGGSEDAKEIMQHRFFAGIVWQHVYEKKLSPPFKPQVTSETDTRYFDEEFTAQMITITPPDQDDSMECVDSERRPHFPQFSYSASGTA

[13] = target: Mitogen-activated protein kinase 10 (Homo sapiens) (UniProt P53779); experiment: Inhibition of MAPK10 (unknown origin) at 10 uM relative to control
Mitogen-activated protein kinase 10 (Homo sapiens), sequence (P53779 whole entry): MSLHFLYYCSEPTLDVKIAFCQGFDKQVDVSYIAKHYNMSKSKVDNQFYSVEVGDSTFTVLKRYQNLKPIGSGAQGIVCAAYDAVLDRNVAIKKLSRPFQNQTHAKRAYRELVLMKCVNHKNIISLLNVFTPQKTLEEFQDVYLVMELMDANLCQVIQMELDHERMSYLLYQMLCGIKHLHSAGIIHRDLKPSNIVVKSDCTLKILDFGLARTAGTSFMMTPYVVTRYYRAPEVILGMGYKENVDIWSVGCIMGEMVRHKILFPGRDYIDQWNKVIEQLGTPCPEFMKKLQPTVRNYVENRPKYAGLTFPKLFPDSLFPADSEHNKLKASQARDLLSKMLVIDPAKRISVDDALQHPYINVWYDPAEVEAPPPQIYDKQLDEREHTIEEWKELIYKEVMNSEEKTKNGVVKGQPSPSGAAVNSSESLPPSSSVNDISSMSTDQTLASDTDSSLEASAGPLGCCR

[14] = target: Cyclin-dependent kinase 5/CDK5 activator 1 (Homo sapiens) (UniProt Q00535+Q15078); experiment: Inhibition of CDK5/P25 (unknown origin) at 10 uM relative to control; format: protein-complex assay
[15] = target: Dual specificity protein kinase CLK1 (Homo sapiens) (UniProt P49759); experiment: Inhibition of CLK1 (unknown origin) at 10 uM relative to control
Dual specificity protein kinase CLK1 (Homo sapiens), sequence (P49759 whole entry, looked up): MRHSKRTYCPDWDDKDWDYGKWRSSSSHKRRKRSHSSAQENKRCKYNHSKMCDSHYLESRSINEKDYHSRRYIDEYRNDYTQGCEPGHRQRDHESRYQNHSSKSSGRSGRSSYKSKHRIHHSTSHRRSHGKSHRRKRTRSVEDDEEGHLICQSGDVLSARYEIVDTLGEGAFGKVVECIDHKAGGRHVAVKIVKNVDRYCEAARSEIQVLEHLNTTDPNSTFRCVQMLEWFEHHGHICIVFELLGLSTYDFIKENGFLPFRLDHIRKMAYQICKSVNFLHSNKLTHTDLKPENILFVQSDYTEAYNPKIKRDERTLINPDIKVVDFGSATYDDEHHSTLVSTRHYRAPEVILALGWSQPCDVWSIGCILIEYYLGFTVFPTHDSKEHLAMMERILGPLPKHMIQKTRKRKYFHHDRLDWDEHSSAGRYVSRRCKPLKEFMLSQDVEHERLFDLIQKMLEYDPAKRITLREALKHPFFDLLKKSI

[16] = target: Serine/threonine-protein kinase PAK 4 (Homo sapiens) (UniProt O96013); experiment: Inhibition of PAK4 (unknown origin) at 10 uM relative to control
[17] = target: cAMP-dependent protein kinase catalytic subunit alpha (Homo sapiens) (UniProt P17612); experiment: Inhibition of PRKACA (unknown origin) at 10 uM relative to control
[18] = target: Receptor tyrosine-protein kinase erbB-4 (Homo sapiens) (UniProt Q15303); experiment: Inhibition of ERBB4 (unknown origin) at 10 uM relative to control
[19] = target: Serine/threonine-protein kinase PLK3 (Homo sapiens) (UniProt Q9H4B4); experiment: Inhibition of PLK3 (unknown origin) at 10 uM relative to control

Work on CC(C)Nc1c(C(N)=O)nnc2cc(N3CCOCC3)ccc12 yielded an inhibition [1] of 93%, an inhibition [2] of 3% and an inhibition [3] of 0%. For the same compound, the inhibition [4] was 7%, the inhibition [5] was -5% and the inhibition [6] was 75%. For the same compound, the inhibition [7] was 98%, the inhibition [8] was 6% and the inhibition [9] was 56%. It also gave an inhibition [10] of 67%, an inhibition [11] of 81% and an inhibition [12] of 1%. For the same compound, the inhibition [13] was 17%, the inhibition [14] was 3% and the inhibition [15] was 4%. The inhibition [16] was 59%, the inhibition [17] was -2% and the inhibition [18] was 15%.

CC(C)Nc1c(C(N)=O)nnc2ccc(-c3cn[nH]c3)cc12 was tested, and the inhibition [1] was 78%, the inhibition [2] was 102% and the inhibition [3] was 40%. For the same compound, the inhibition [4] was 97%, the inhibition [5] was 63% and the inhibition [6] was 94%. It also gave an inhibition [7] of 101%, an inhibition [8] of 80% and an inhibition [9] of 97%. It also gave an inhibition [10] of 97%, an inhibition [11] of 87% and an inhibition [12] of 32%. For the same compound, the inhibition [13] was 93%, the inhibition [14] was 97% and the inhibition [15] was 101%. It also gave an inhibition [16] of 81%, an inhibition [19] of 16% and an inhibition [17] of 53%. The inhibition [18] was 38%.

CC(C)Nc1c(C(N)=O)nnc2cc(-c3ccncc3)ccc12 was tested, and the inhibition [1] was 95%, the inhibition [2] was 40% and the inhibition [3] was 15%. The inhibition [4] was 44%, the inhibition [5] was 23% and the inhibition [6] was 85%. For the same compound, the inhibition [8] was 30%, the inhibition [9] was 91% and the inhibition [10] was 94%. The inhibition [11] was 95%, the inhibition [12] was 13% and the inhibition [13] was 81%. For the same compound, the inhibition [14] was 32%, the inhibition [15] was 60% and the inhibition [16] was 82%. The inhibition [19] was 0%, the inhibition [17] was 29% and the inhibition [18] was 22%.

C[C@@H](Nc1c(C(N)=O)nnc2cc(-c3ccc(S(C)(=O)=O)cc3)ccc12)C1CC1 gave an inhibition [1] of 54%, an inhibition [2] of -3% and an inhibition [3] of 0%. The inhibition [4] was 3%, the inhibition [6] was 81% and the inhibition [7] was 93%. The inhibition [8] was 17%, the inhibition [9] was 68% and the inhibition [10] was 35%. It also gave an inhibition [11] of 80%, an inhibition [12] of 4% and an inhibition [13] of 21%. For the same compound, the inhibition [15] was 5%, the inhibition [16] was 33% and the inhibition [19] was 5%. For the same compound, the inhibition [17] was -1% and the inhibition [18] was 12%.

For CS(=O)(=O)c1ccc(-c2ccc3c(NC4CCC4)c(C(N)=O)nnc3c2)cc1, the inhibition [1] was 82%, the inhibition [2] was 7% and the inhibition [3] was -2%. The inhibition [4] was 20%, the inhibition [5] was 3% and the inhibition [6] was 35%. It also gave an inhibition [7] of 94%, an inhibition [8] of 11% and an inhibition [9] of 46%. For the same compound, the inhibition [10] was 60%, the inhibition [11] was 53% and the inhibition [12] was 5%. For the same compound, the inhibition [13] was 21%, the inhibition [14] was -1% and the inhibition [15] was 14%. The inhibition [16] was 43%, the inhibition [19] was 10% and the inhibition [17] was 0%. It also gave an inhibition [18] of 4%.

CC(C)Nc1c(C(N)=O)nnc2ccc(-c3ccncc3)cc12 gave an inhibition [1] of 66%, an inhibition [2] of 102% and an inhibition [3] of 43%. For the same compound, the inhibition [4] was 97%, the inhibition [5] was 26% and the inhibition [6] was 90%. The inhibition [7] was 100%, the inhibition [8] was 51% and the inhibition [9] was 97%. The inhibition [10] was 93%, the inhibition [11] was 88% and the inhibition [12] was 25%. The inhibition [13] was 88%, the inhibition [14] was 82% and the inhibition [15] was 103%. It also gave an inhibition [16] of 58%, an inhibition [19] of 73% and an inhibition [17] of 43%. It also gave an inhibition [18] of 21%.

CC(C)Nc1c(C(N)=O)cnc2cc(-c3ccc(S(C)(=O)=O)cc3)ccc12 showed an inhibition [1] of 72%, an inhibition [2] of 1% and an inhibition [3] of 8%. For the same compound, the inhibition [4] was 9%, the inhibition [5] was 7% and the inhibition [6] was 31%. For the same compound, the inhibition [7] was 98%, the inhibition [8] was 7% and the inhibition [9] was 50%. The inhibition [10] was 50%, the inhibition [11] was 94% and the inhibition [12] was 5%. It also gave an inhibition [13] of 4%, an inhibition [14] of 2% and an inhibition [15] of 2%. For the same compound, the inhibition [16] was 64%, the inhibition [19] was 1% and the inhibition [17] was 6%. For the same compound, the inhibition [18] was 11%.
